Laboratory results from patent US10806726B2, “Methods of using indazole-3-carb oxamides and their use as Wnt/B-catenin signaling pathway inhibitors” (Samumed, LLC, priority 2016, dated 2020).

What was measured:
[1] = system: Wnt-responsive promoter driving firefly luciferase in SW480 cells; assay: Wnt reporter (SP5 promoter-luciferase) screening assay in SW480 cells; format: cell-based; details: Homo sapiens, 24-40 h, top concentration ten micromolar
From the text: Another screening assay for Wnt activity is described as follows. Reporter cell lines can be generated by stably transducing cells of cancer cell lines (e.g., colon cancer) with a lentiviral construct that include a Wnt-responsive promoter driving expression of the firefly luciferase gene.
Lentiviral constructs can be made in which the SP5 promoter, a promoter having eight TCF/LEF binding sites derived from the SP5 promoter, is linked upstream of the firefly luciferase gene. The lentiviral constructs can also include a hygromycin resistance gene as a selectable marker. The SP5 promoter construct can be used to transduce SW480 cells, a colon cancer cell line having a mutated APC gene that generates a truncated APC protein, leading to de-regulated accumulation of β-catenin.
Cultured SW480 cells bearing a reporter construct can be distributed at approximately 10,000 cells per well into 96 well or 384 well plates. Compounds from a small molecule compound library can then be added to the wells in half-log dilutions using a ten micromolar top concentration. A series of control wells for each cell type receive only buffer and compound solvent. Twenty-four to forty hours after the addition of compound, reporter activity for luciferase can be assayed, for example, by addition of the BrightGlo luminescence reagent (Promega) and the Victor3 plate reader (Perkin Elmer). Readings can be normalized to DMSO only treated cells, and normalized activities can then be used in the EC50 calculations.

[2] = system: primary human mesenchymal stem cells (hMSCs); assay: Tenocyte differentiation screening in hMSCs (SCXA-positive cells, 4 days); format: cell-based; details: 96 h, fold change over DMSO
From the text: Representative compounds were screened using primary human mesenchymal stem cells (hMSCs) to determine their ability to induce tenocyte differentiation (process by which tendon is developed).
Primary human mesenchymal stem cells (hMSCs) were purchased from Lonza (Walkersville, Md.) and expanded in Mesenchymal Stem Cell Growth Media (Lonza). Cells between passage 3 and 6 were used for the experiments.
Cells were fixed using 4% formaldehyde (Electron Microscopy Sciences), and stained with anti-Sclerasis (anti-SCXA) antibodies (Abgent, San Diego, Calif.) [Webb S., et. al., Retinoic acid receptor signaling preserves tendon stem cell characteristics and prevents spontaneous differentiation in vitro, Stem Cell Research & Therapy 2016, 7:45] overnight at 4° C. […] Number of cells positive for SCXA in each well was quantified using the Celllnsight CX5. Data was normalized to the average of 12 DMSO treated wells on the same plate using Dotmatics Studies module. The normalized averages (fold change over DMSO) of 3 replicate wells for each compound concentration were calculated. Due to solubility limitations of some of the compounds, values for higher doses were manually corrected and curve fitting and EC50 determinations were performed using Dotmatics Studies.
EC50 for each compound is reported.

Compound	EC50 [1] [nM]	EC50 [2] [nM]
O=C(Nc1ccnnc1)c1n[nH]c2ccc(-c3cncc(CN4CCCCC4)c3)cc12 [compound 75, 5-(5-(Piperidin-1-ylmethyl)pyridin-3-yl)-N-(pyridazin-4-yl)-1H-indazole-3-carboxamide]	40	12400
O=C(Nc1ccc(CN2CCCC2)nc1)c1n[nH]c2ccc(-c3cccnc3)cc12 [compound 8, 5-(Pyridin-3-yl)-N-(6-(pyrrolidin-1-ylmethyl)pyridin-3-yl)-1H-indazole-3-carboxamide]	130	4980
O=C(Nc1cncc(-c2cccc(F)c2)c1)c1n[nH]c2ccc(-c3cccnc3)cc12 [compound 9, N-(5-(3-Fluorophenyl)pyridin-3-yl)-5-(pyridin-3-yl)-1H-indazole-3-carboxamide]	≥ 10000	> 100000
O=C(Nc1ccc(C(=O)N2CCCC2)nc1)c1n[nH]c2ccc(-c3cncc(CN4CCCCC4)c3)cc12 [compound 179, 5-(5-(Piperidin-1-ylmethyl)pyridin-3-yl)-N-(6-(pyrrolidine-1-carbonyl)pyridin-3-yl)-1H-indazole-3-carboxamide]	30	1120
O=C(Nc1ccc2c(c1)OCCO2)c1n[nH]c2ccc(-c3cncc(CN4CCCCC4)c3)cc12 [compound 79, N-(2,3-Dihydrobenzo[b][1,4]dioxin-6-yl)-5-(5-(piperidin-1-ylmethyl)pyridin-3-yl)-1H-indazole-3-carboxamide]	123	> 100000
O=C(NC1CCOCC1)c1n[nH]c2ccc(-c3cncc(CN4CCCCC4)c3)cc12 [compound 163, 5-(5-(Piperidin-1-ylmethyl)pyridin-3-yl)-N-(tetrahydro-2H-pyran-4-yl)-1H-indazole-3-carboxamide]	15400	5090
CN1CCN(c2cncc(-c3ccc4[nH]nc(C(=O)Nc5ccc(N6CCCC6)nc5)c4c3)c2)CC1 [compound 186, 5-(5-(4-Methylpiperazin-1-yl)pyridin-3-yl)-N-(6-(pyrrolidin-1-yl)pyridin-3-yl)-1H-indazole-3-carboxamide]	460	> 100000
CN1CCN(c2ccc(NC(=O)c3n[nH]c4ccc(-c5cncc(NC(=O)C6CC6)c5)cc34)cn2)CC1 [compound 38, 5-(5-(Cyclopropanecarboxamido)pyridin-3-yl)-N-(6-(4-methylpiperazin-1-yl)pyridin-3-yl)-1H-indazole-3-carboxamide]	120	2840
CN(C)CCN(C)c1ccc(NC(=O)c2n[nH]c3ccc(-c4cncc(CN5CCCCC5)c4)cc23)cn1 [compound 74, N-(6-((2-(Dimethylamino)ethyl)(methyl)amino)pyridin-3-yl)-5-(5-(piperidin-1-ylmethyl)pyridin-3-yl)-1H-indazole-3-carboxamide]	65	10200
O=C(Nc1cccnc1)c1n[nH]c2ccc(-c3cc(F)cc(CN4CCCCC4)c3)cc12 [compound 67, 5-(3-Fluoro-5-(piperidin-1-ylmethyl)phenyl)-N-(pyridin-3-yl)-1H-indazole-3-carboxamide]	≥ 10000	> 100000
O=C(Nc1cccnc1)c1n[nH]c2ccc(-c3cncc(F)c3)cc12 [compound 13, 5-(5-fluoropyridin-3-yl)-N-(pyridin-3-yl)-1H-indazole-3-carboxamide]	1250	> 100000
Nc1cncc(-c2ccc3[nH]nc(C(=O)Nc4ccc(N5CCCCC5)nc4)c3c2)c1 [compound 182, 5-(5-Aminopyridin-3-yl)-N-(6-(piperidin-1-yl)pyridin-3-yl)-1H-indazole-3-carboxamide]	35	8040

The remaining lines, values ahead:

EC50 [1] [nM]	EC50 [2] [nM]	Compound
65	> 100000	O=C(Nc1ccc(C(F)(F)F)nc1)c1n[nH]c2ccc(-c3cncc(NC(=O)C4CC4)c3)cc12 [compound 39, 5-(5-(Cyclopropanecarboxamido)pyridin-3-yl)-N-(6-(trifluoromethyl)pyridin-3-yl)-1H-indazole-3-carboxamide]
158	> 100000	O=C(Nc1cncc(Cc2ccccc2)c1)c1n[nH]c2ccc(-c3cncc(CN4CCCCC4)c3)cc12 [compound 80, N-(5-Benzylpyridin-3-yl)-5-(5-(piperidin-1-ylmethyl)pyridin-3-yl)-1H-indazole-3-carboxamide]
38	> 100000	O=C(NC1CCCC1)c1ccc(NC(=O)c2n[nH]c3ccc(-c4cccnc4)cc23)cn1 [compound 181, N-(6-(Cyclopentylcarbamoyl)pyridin-3-yl)-5-(pyridin-3-yl)-1H-indazole-3-carboxamide]
122	5380	O=C(Nc1ccc(Oc2ccccc2F)nc1)c1n[nH]c2ccc(-c3cccnc3)cc12 [compound 18, N-(6-(2-fluorophenoxy)pyridin-3-yl)-5-(pyridin-3-yl)-1H-indazole-3-carboxamide]
63	5000	CN1CCN(c2ccc(NC(=O)c3n[nH]c4ccc(-c5cccnc5)cc34)cn2)CC1 [compound 12, N-(6-(4-Methylpiperazin-1-yl)pyridin-3-yl)-5-(pyridin-3-yl)-1H-indazole-3-carboxamide]
215	> 100000	O=C(Nc1ccc(-c2cccc(F)c2)nc1)c1n[nH]c2ccc(-c3cncc(CN4CCCCC4)c3)cc12 [compound 72, N-(6-(3-Fluorophenyl)pyridin-3-yl)-5-(5-(piperidin-1-ylmethyl)pyridin-3-yl)-1H-indazole-3-carboxamide]
26	> 100000	O=C(Nc1cccnc1)c1n[nH]c2ccc(-c3ccc(N4CCCC4)nc3)cc12 [compound 51, N-(Pyridin-3-yl)-5-(6-(pyrrolidin-1-yl)pyridin-3-yl)-1H-indazole-3-carboxamide]
≥ 10000	35800	O=C(Nc1cccnc1)c1n[nH]c2ccc(-c3cncc(C(F)(F)F)c3)cc12 [compound 16, N-(pyridin-3-yl)-5-(5-(trifluoromethyl)pyridin-yl)-1H-indazole-3-carboxamide]
1250	> 100000	O=C(Nc1cccnc1)c1n[nH]c2ccc(-c3cncc(NC(=O)N4CCOCC4)c3)cc12 [compound 32, N-(5-(3-(Pyridin-3-ylcarbamoyl)-1H-indazol-5-yl)pyridin-3-yl) morpholine-4-carboxamide]
66	5270	CN(C)Cc1cncc(NC(=O)c2n[nH]c3ccc(-c4cncc(CN5CCCCC5)c4)cc23)c1 [compound 86, N-(5-((Dimethylamino)methyl)pyridin-3-yl)-5-(5-(piperidin-1-ylmethyl)pyridin-3-yl)-1H-indazole-3-carboxamide]
36	> 100000	Cc1cc(NC(=O)c2n[nH]c3ccc(-c4cncc(CN5CCCCC5)c4)cc23)cnc1N1CCC1 [compound 173, N-(6-(Azetidin-1-yl)-5-methylpyridin-3-yl)-5-(5-(piperidin-1-ylmethyl)pyridin-3-yl)-1H-indazole-3-carboxamide]
60	> 100000	Cc1cc(NC(=O)c2n[nH]c3ccc(-c4cncc(CN5CCCCC5)c4)cc23)cnc1N1CCCC1 [compound 172, N-(5-Methyl-6-(pyrrolidin-1-yl)pyridin-3-yl)-5-(5-(piperidin-1-ylmethyl)pyridin-3-yl)-1H-indazole-3-carboxamide]
30	4650	Nc1ncc(NC(=O)c2n[nH]c3ccc(-c4cncc(CN5CCCCC5)c4)cc23)cn1 [compound 176, N-(2-Aminopyrimidin-5-yl)-5-(5-(piperidin-1-ylmethyl)pyridin-3-yl)-1H-indazole-3-carboxamide]
210	> 100000	CN(C)Cc1cncc(-c2ccc3[nH]nc(C(=O)Nc4ccc(C(F)(F)F)nc4)c3c2)c1 [compound 26, 5-(5-((Dimethylamino)methyl)pyridin-3-yl)-N-(6-(trifluoromethyl)pyridin-3-yl)-1H-indazole-3-carboxamide]
≥ 10000	> 100000	CN1CCN(Cc2cc(F)cc(-c3ccc4[nH]nc(C(=O)Nc5cnccc5C(F)(F)F)c4c3)c2)CC1 [compound 60, 5-(3-Fluoro-5-((4-methylpiperazin-1-yl)methyl)phenyl)-N-(4-(trifluoromethyl)pyridin-3-yl)-1H-indazole-3-carboxamide]
67	8120	O=C(Nc1cccnc1)c1n[nH]c2ccc(-c3cncc(NC(=O)C4CC4)c3)cc12 [compound 41, 5-(5-(Cyclopropanecarboxamido)pyridin-3-yl)-N-(pyridin-3-yl)-1H-indazole-3-carboxamide]
